Laboratory results reported in ChEMBL document CHEMBL5523716, “Discovery of novel EGFR-PROTACs capable of degradation of multiple EGFR-mutated proteins” (Eur J Med Chem, 2024).
Activity calls are given as the source filed them. The rule behind the calls is not given here.

How the values were obtained:
HCC827 [1] = test: Antiproliferative activity against human HCC827 cells harboring EGFR Del19 mutant assessed as inhibition of cell growth incubated for 48 to 72 hrs by CCK-8 assay; assay type: functional, cell-based
NCI-H1975 = test: Antiproliferative activity against human NCI-H1975 cells harboring EGFR L858R/T790M double mutant assessed as inhibition of cell growth incubated for 48 to 72 hrs by CCK-8 assay; assay type: functional, cell-based
[2] = Antiproliferative activity against human H1975-TM cells harboring EGFR L858R/T790M/C797S mutant assessed as inhibition of cell growth incubated for 48 to 72 hrs by CCK-8 assay; assay type: functional, cell-based
A549 = test: Antiproliferative activity against human A549 cells harboring EGFR wild type assessed as inhibition of cell growth incubated for 48 to 72 hrs by CCK-8 assay; assay type: functional, cell-based
[3] = Metabolic stability in monkey liver microsomes assessed as elimination rate constant at 1 uM incubated upto 60 mins in presence of NADPH by LC-MS/MS analysis; assay type: ADME, Macaca mulatta, Microsome; conditions: rhesus monkey
[4] = Metabolic stability in mouse liver microsomes assessed as elimination rate constant at 1 uM incubated upto 60 mins in presence of NADPH by LC-MS/MS analysis; assay type: ADME, Microsome
[5] = Metabolic stability in dog liver microsomes assessed as half-life at 1 uM incubated upto 60 mins in presence of NADPH by LC-MS/MS analysis; assay type: ADME, Canis lupus familiaris, Microsome
[6] = Metabolic stability in rat liver microsomes assessed as half-life at 1 uM incubated upto 60 mins in presence of NADPH by LC-MS/MS analysis; assay type: ADME, Microsome
[7] = Metabolic stability in mouse liver microsomes assessed as half-life at 1 uM incubated upto 60 mins in presence of NADPH by LC-MS/MS analysis; assay type: ADME, Microsome
[8] = Metabolic stability in rat liver microsomes assessed as intrinsic clearance at 1 uM incubated upto 60 mins in presence of NADPH by LC-MS/MS analysis; assay type: ADME, Microsome; conditions: read-out: CLH
[9] = Half life in SPF ICR mouse at 2 mg/kg,iv measured upto 24 hrs by LC-MS/MS analysis; assay type: ADME, organism-based; conditions: in vivo
[10] = Half life in SPF ICR mouse at 5 mg/kg,ip measured upto 24 hrs by LC-MS/MS analysis; assay type: ADME, organism-based; conditions: in vivo
[11] = Cmax in SPF ICR mouse at 2 mg/kg,iv measured upto 24 hrs by LC-MS/MS analysis; assay type: ADME, organism-based; conditions: in vivo
[12] = MRT (0 to t) in SPF ICR mouse at 2 mg/kg,iv measured upto 24 hrs by LC-MS/MS analysis; assay type: ADME, organism-based; conditions: in vivo
[13] = molecular target: von Hippel-Lindau disease tumor suppressor/Epidermal growth factor receptor (Homo sapiens, UniProt P00533+P40337, T790M/L858R); test: PROTAC activity at VHL/EGFR L858R/T790M mutant in human NCI-H1975 cells assessed as induction of EGFR degradation incubated for 72 hrs by Western blot analysis; assay type: cell-based
[14] = molecular target: von Hippel-Lindau disease tumor suppressor/Epidermal growth factor receptor (Homo sapiens, UniProt P00533+P40337, T790M/C797S/L858R); test: PROTAC activity at VHL/EGFR L858R/T790M/C797S mutant in human H1975-TM cells assessed as induction of EGFR degradation incubated for 48 hrs by Western blot analysis; assay type: cell-based
[15] = system: von Hippel-Lindau disease tumor suppressor/Epidermal growth factor receptor (Homo sapiens), P00533+P40337 [UNDEFINED MUTATION]; test: PROTAC activity at VHL/EGFR Del19 mutant in human HCC827 cells assessed as downregulation of EGFR phosphorylation incubated for 72 hrs by Western blot analysis; assay type: cell-based
[16] = system: von Hippel-Lindau disease tumor suppressor/Epidermal growth factor receptor (Homo sapiens), P00533+P40337 [L858R,T790M]; test: PROTAC activity at VHL/EGFR L858R/T790M mutant in human NCI-H1975 cells assessed as downregulation of ERK phosphorylation incubated for 72 hrs by Western blot analysis; assay type: cell-based
[17] = system: von Hippel-Lindau disease tumor suppressor/Epidermal growth factor receptor (Homo sapiens), P00533+P40337 [UNDEFINED MUTATION]; test: PROTAC activity at VHL/EGFR Del19 mutant in human HCC827 cells assessed as induction of EGFR degradation at 100 nM by Western blot analysis; assay type: cell-based; conditions: TDE = time-dependent effect
[18] = system: von Hippel-Lindau disease tumor suppressor/Epidermal growth factor receptor (Homo sapiens), P00533+P40337 [L858R,T790M]; test: PROTAC activity at VHL/EGFR L858R/T790M mutant in human NCI-H1975 cells assessed as induction of EGFR degradation at 2 uM incubated for 8 hr by Western blot analysis; assay type: cell-based
[19] = system: von Hippel-Lindau disease tumor suppressor/Epidermal growth factor receptor (Homo sapiens), P00533+P40337 [UNDEFINED MUTATION]; test: PROTAC activity at VHL/EGFR Del19 mutant in human HCC827 cells assessed as induction of EGFR degradation at 100 nM preincubated with MG-132 for 6 hrs followed by compound treatment for 48 hrs by Western blot analysis; assay type: cell-based
[20] = system: von Hippel-Lindau disease tumor suppressor/Epidermal growth factor receptor (Homo sapiens), P00533+P40337 [L858R,T790M]; test: PROTAC activity at VHL/EGFR L858R/T790M mutant in human NCI-H1975 cells assessed as induction of EGFR degradation at 100 nM preincubated with MG-132 for 6 hrs followed by compound treatment for 48 hrs by Western blot analysis; assay type: cell-based
[21] = system: von Hippel-Lindau disease tumor suppressor/Epidermal growth factor receptor (Homo sapiens), P00533+P40337 [L858R,T790M,C797S]; test: PROTAC activity at VHL/EGFR L858R/T790M/C797S mutant in human H1975-TM cells assessed as induction of EGFR degradation at 100 nM preincubated with MLN-4924 for 6 hrs followed by compound treatment for 48 hrs by Western blot analysis; assay type: cell-based
HCC827 [22] = test: Antitumor activity against human HCC827 cells xenografted in BALB/c mouse assessed as tumor growth inhibition at 1.25 mg/kg,ip once daily for 28 days relative to control; assay type: functional; conditions: HCC827, 672 h, time 28 day, read-out: TGI
HCC827 [23] = test: Antitumor activity against human HCC827 cells xenografted in BALB/c mouse assessed as increase in EGFR degradation in tumor at 1.25 to 5 mg/kg,ip once daily for 28 days by Western blot analysis; assay type: functional, organism-based; conditions: dose 1.25-5 mg/kg, time 28.0 day
[24] = Antitumor activity against human H1975-TM cells xenografted in BALB/c mouse assessed as tumor growth inhibition at 10 mg/kg,ip once daily for 14 days relative to control; assay type: functional; conditions: 336 h, time 14 day, read-out: TGI
H1975-TM [25] = test: Antitumor activity against human H1975-TM cells xenografted in BALB/c mouse assessed as downregulation of EGFR phosphorylation in tumor at 5 to 20 mg/kg,ip once daily for 14 days by Western blot analysis; assay type: functional, organism-based; conditions: dose 5-20 mg/kg, time 14.0 day
H1975-TM [26] = test: Antitumor activity against human H1975-TM cells xenografted in BALB/c mouse assessed as downregulation of ERK phosphorylation in tumor at 5 to 20 mg/kg,ip once daily for 14 days by Western blot analysis; assay type: functional, organism-based; conditions: dose 5-20 mg/kg, time 14.0 day
[27] = molecular target: Voltage-gated inwardly rectifying potassium channel KCNH2 (Homo sapiens, UniProt Q12809); test: Inhibition of hERG expressed in CHO cells at 0.3 to 30 uM incubated for 24 to 48 hrs by voltage clamp electrophysiology; assay type: toxicity, cell-based; conditions: dose lower 0.3 µM, time lower 24 hrs, dose upper 30 µM, time upper 48 hrs
Chain of Voltage-gated inwardly rectifying potassium channel KCNH2 (Q12809 whole entry): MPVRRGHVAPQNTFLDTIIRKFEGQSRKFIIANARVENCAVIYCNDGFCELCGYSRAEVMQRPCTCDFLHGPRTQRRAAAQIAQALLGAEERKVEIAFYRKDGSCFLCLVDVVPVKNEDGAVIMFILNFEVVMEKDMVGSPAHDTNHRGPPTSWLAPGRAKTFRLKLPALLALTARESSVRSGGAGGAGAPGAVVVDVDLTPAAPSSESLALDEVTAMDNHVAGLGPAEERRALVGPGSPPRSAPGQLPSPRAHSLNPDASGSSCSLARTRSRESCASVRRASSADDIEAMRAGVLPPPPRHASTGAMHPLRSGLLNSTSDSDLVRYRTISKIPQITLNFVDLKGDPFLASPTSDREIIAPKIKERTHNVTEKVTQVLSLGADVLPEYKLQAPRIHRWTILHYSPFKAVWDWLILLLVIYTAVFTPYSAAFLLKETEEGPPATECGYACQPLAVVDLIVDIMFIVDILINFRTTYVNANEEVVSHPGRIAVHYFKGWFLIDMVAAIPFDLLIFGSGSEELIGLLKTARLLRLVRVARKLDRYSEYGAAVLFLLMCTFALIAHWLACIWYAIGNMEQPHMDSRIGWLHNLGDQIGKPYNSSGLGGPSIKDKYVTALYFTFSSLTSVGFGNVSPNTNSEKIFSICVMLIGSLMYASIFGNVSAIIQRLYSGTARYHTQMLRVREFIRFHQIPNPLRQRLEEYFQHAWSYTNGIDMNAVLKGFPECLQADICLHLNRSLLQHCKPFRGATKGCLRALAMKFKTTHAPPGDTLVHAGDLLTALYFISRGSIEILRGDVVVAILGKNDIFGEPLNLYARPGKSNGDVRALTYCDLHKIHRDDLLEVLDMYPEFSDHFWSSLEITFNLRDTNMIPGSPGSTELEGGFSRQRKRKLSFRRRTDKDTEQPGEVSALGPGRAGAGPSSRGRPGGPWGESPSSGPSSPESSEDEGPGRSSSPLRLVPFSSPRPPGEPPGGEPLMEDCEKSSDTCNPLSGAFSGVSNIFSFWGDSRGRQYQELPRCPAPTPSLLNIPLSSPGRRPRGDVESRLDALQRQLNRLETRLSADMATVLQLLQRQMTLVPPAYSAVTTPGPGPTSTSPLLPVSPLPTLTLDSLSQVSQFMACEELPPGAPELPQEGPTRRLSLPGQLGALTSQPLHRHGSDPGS

## CCN(CC)C/C=C/C(=O)Nc1cc2c(Nc3ccc(F)c(Cl)c3)ncnc2cc1OCc1cn(CCCCCCCC(=O)N[C@H](C(=O)N2C[C@H](O)C[C@H]2C(=O)N[C@H](C)c2ccc(-c3scnc3C)cc2)C(C)(C)C)nn1
HCC827 [1]
  IC50: 9 nM
NCI-H1975
  IC50: 490 nM
[2]
  IC50: 3240 nM
A549
  IC50: > 20000 nM
[3]
  k el at 1 h, 1 µM: 0.0003 s⁻¹
[4]
  k el at 1 h, 1 µM: 0.0001 s⁻¹
[5]
  half-life at 1 µM: 1.3 h
[6]
  half-life at 1 µM: 3.12 h
[7]
  half-life at 1 µM: 1.95 h
[8]
  microsomal CLint at 1 µM: 7.4 µL/min/mg
[9]
  half-life: 1.67 h
[10]
  half-life: 0.96 h
[11]
  Cmax: 7830 ng/mL
[12]
  MRT last at 24 h: 0.29 h
[13]
  DC50: 250 nM
[14]
  DC50: 630 nM
[15]
  Activity: Dose-Dependent Effect
[16]
  Activity: Dose-Dependent Effect
[17]
  Activity: Tde
[18]
  Activity: 83%
[19]
  Activity: inactive
[20]
  Activity: inactive
[21]
  Activity: inactive
HCC827 [22]
  inhibition in vivo at 1.25 mg/kg: 41%
HCC827 [23]
  Activity: Active
[24]
  inhibition in vivo at 10 mg/kg: 34%
H1975-TM [25]
  Activity: Active
H1975-TM [26]
  Activity: Active
[27]
  inhibition (INH): Not Active
